Data from ChEMBL document CHEMBL1151757, “Synthesis, radiosynthesis, and biological evaluation of fluorine-18-labeled 2beta-carbo(fluoroalkoxy)-3beta-(3'-((Z)-2-haloethenyl)phenyl)nortropanes: candidate radioligands for in vivo imaging of the serotonin transporter with positron emission tomography” (J Med Chem, 2008).

Columns and labels:
[1] = Ratio of drug uptake in pons to cerebellum in anesthetized cynomolgus monkey after 165 mins postinjection; assay type: ADME, organism-based, Macaca fascicularis; details: in vivo, 2.75 h
[2] = Ratio of drug uptake in frontal lobe to cerebellum in awake rhesus monkey after 75 mins postinjection; assay type: ADME, organism-based, Macaca mulatta; details: in vivo, 1.25 h
[3] = Drug uptake in awake rhesus monkey brain midbrain after 0.75 mins postinjection; assay type: ADME, organism-based, Macaca mulatta; details: in vivo, 45 s

With `O=C(OCC[18F])C1C2CCC(CC1c1ccc(/C=C\I)cc1)N2` (stereo not drawn) as the molecule, how does the Ratio [1] read?
The Ratio was 2.6.

With `O=C(OCC[18F])C1C2CCC(CC1c1cccc(/C=C\I)c1)N2` (stereo not drawn) as the molecule, how does the Ratio [2] read?
The Ratio was 1.1.

What about the Drug uptake [3] of the same molecule?
Its Drug uptake is 0.
